In PubChem BioAssay AID248 (DTP/NCI, 2004):
Where “and” joins values, the source holds several entries; their conditions need not be identical. Equal entries are not always repeated. Toxic doses and inconclusive results are not listed. No stated cut-off is given here; in the data, active means T/C of 150% or more; inactive means T/C below 125%.

Tested on: L1210 leukemia ip in BDF1 mice, survival T/C
Experiment: NCI In Vivo Anticancer Drug Screen. Data for tumor model L1210 Leukemia (intraperitoneal) in B6D2F1 (BDF1) mice
Conditions: higher = longer survival
Method in brief: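 Each compound was tested against a transplantable tumor grown in mice. The endpoint was survival, with treated animals benchmarked against vehicle controls as a simple ratio.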

Measured: T/C

Cc1c2ccncc2c(C)c2c1[nH]c1ccccc12
inactive: endpoint: mean survival time, dose: 0.31 mg/kg/injection, schedule: Q#A X018 (ip), vehicle: other 102 % of control | endpoint: mean survival time, dose: 0.5 mg/kg/injection, schedule: Q01DX005 (ip), vehicle: other 105 % of control | endpoint: mean survival time, dose: 0.59 mg/kg/injection, schedule: Q03HX008 (ip), vehicle: other 94 % of control | endpoint: mean survival time, dose: 1.0 mg/kg/injection, schedule: Q01DX009 (ip), vehicle: other 111 % of control | endpoint: mean survival time, dose: 1.0 mg/kg/injection, schedule: Q01DX009 (ip), vehicle: water 107 % of control and 110 % of control | endpoint: mean survival time, dose: 1.0 mg/kg/injection, schedule: Q03HX024 (ip), vehicle: acid diluted with saline 110 % of control | endpoint: mean survival time, dose: 1.18 mg/kg/injection, schedule: Q03HX008 (ip), vehicle: other 98 % of control | endpoint: mean survival time, dose: 1.25 mg/kg/injection, schedule: Q#A X018 (ip), vehicle: other 110 % of control | endpoint: mean survival time, dose: 2.0 mg/kg/injection, schedule: Q01DX009 (ip), vehicle: other 111 % of control | endpoint: mean survival time, dose: 2.0 mg/kg/injection, schedule: Q03HX016 (ip), vehicle: clinical formulation 105 % of control | endpoint: mean survival time, dose: 2.0 mg/kg/injection, schedule: Q03HX016 (oral), vehicle: clinical formulation 95 % of control | endpoint: mean survival time, dose: 3.12 mg/kg/injection, schedule: Q01DX005 (oral), vehicle: saline 95 % of control | endpoint: mean survival time, dose: 3.12 mg/kg/injection, schedule: Q01DX009 (ip), vehicle: clinical formulation 102 % of control | endpoint: mean survival time, dose: 3.12 mg/kg/injection, schedule: Q04DX003 (ip), vehicle: clinical formulation 108 % of control | endpoint: mean survival time, dose: 3.12 mg/kg/injection, schedule: Q04DX009 (ip), vehicle: citric acid 101 % of control | endpoint: mean survival time, dose: 4.0 mg/kg/injection, schedule: Q01DX009 (oral), vehicle: clinical formulation 102 % of control | endpoint: mean survival time, dose: 4.0 mg/kg/injection, schedule: Q03HX008 (oral), vehicle: clinical formulation 109 % of control | endpoint: mean survival time, dose: 4.0 mg/kg/injection, schedule: Q03HX016 (oral), vehicle: clinical formulation 105 % of control | endpoint: mean survival time, dose: 4.0 mg/kg/injection, schedule: Q03HX024 (oral), vehicle: clinical formulation 110 % of control | endpoint: mean survival time, dose: 5.0 mg/kg/injection, schedule: Q01DX015 (oral), vehicle: carboxymethylcellulose (CMC) 105 % of control | endpoint: mean survival time, dose: 6.2 mg/kg/injection, schedule: Q01DX001 (ip), vehicle: saline 108 % of control | endpoint: mean survival time, dose: 6.2 mg/kg/injection, schedule: Q01DX Z (oral), vehicle: saline 110 % of control | endpoint: mean survival time, dose: 6.25 mg/kg/injection, schedule: Q01DX005 (oral), vehicle: saline 104 % of control | endpoint: mean survival time, dose: 6.25 mg/kg/injection, schedule: Q01DX005 (oral), vehicle: water 106 % of control | endpoint: mean survival time, dose: 6.25 mg/kg/injection, schedule: Q04DX003 (ip), vehicle: citric acid 107 % of control | endpoint: mean survival time, dose: 6.25 mg/kg/injection, schedule: Q04DX003 (ip), vehicle: clinical formulation 109 % of control and 110 % of control | endpoint: mean survival time, dose: 6.25 mg/kg/injection, schedule: Q04DX009 (ip), vehicle: citric acid 110 % of control | endpoint: mean survival time, dose: 8.0 mg/kg/injection, schedule: Q04DX003 (ip), vehicle: Klucel (hydroxypropylcellulose) (HPC) 110 % of control | endpoint: mean survival time, dose: 8.0 mg/kg/injection, schedule: Q04DX003 (ip), vehicle: acid diluted with saline 109 % of control | endpoint: mean survival time, dose: 9.37 mg/kg/injection, schedule: Q01DX001 (ip), vehicle: other 103 % of control | endpoint: mean survival time, dose: 9.37 mg/kg/injection, schedule: Q01DX001 (sc), vehicle: other 103 % of control and 104 % of control | endpoint: mean survival time, dose: 9.38 mg/kg/injection, schedule: Q01DX001 (ip), vehicle: other 100 % of control | endpoint: mean survival time, dose: 9.38 mg/kg/injection, schedule: Q04DX003 (ip), vehicle: clinical formulation 110 % of control | endpoint: mean survival time, dose: 10.0 mg/kg/injection, schedule: Q01DX015 (oral), vehicle: carboxymethylcellulose (CMC) 110 % of control | endpoint: mean survival time, dose: 12.5 mg/kg/injection, schedule: Q01DX005 (oral), vehicle: water 109 % of control | endpoint: mean survival time, dose: 12.5 mg/kg/injection, schedule: Q04DX003 (oral), vehicle: saline 106 % of control | endpoint: mean survival time, dose: 12.5 mg/kg/injection, schedule: Q04DX003 (oral), vehicle: water 104 % of control | endpoint: mean survival time, dose: 16.0 mg/kg/injection, schedule: Q03HX008 (ip), vehicle: clinical formulation 94 % of control | endpoint: mean survival time, dose: 16.0 mg/kg/injection, schedule: Q08DX002 (oral), vehicle: clinical formulation 100 % of control | endpoint: mean survival time, dose: 18.75 mg/kg/injection, schedule: Q01DX001 (sc), vehicle: other 107 % of control | endpoint: mean survival time, dose: 25.0 mg/kg/injection, schedule: Q01DX001 (oral), vehicle: saline with Tween-80 103 % of control | endpoint: mean survival time, dose: 25.0 mg/kg/injection, schedule: Q01DX001 (oral), vehicle: water 104 % of control | endpoint: mean survival time, dose: 25.0 mg/kg/injection, schedule: Q01DX009 (ip), vehicle: citric acid 108 % of control | endpoint: mean survival time, dose: 25.0 mg/kg/injection, schedule: Q01DX009 (ip), vehicle: clinical formulation 101 % of control | endpoint: mean survival time, dose: 25.0 mg/kg/injection, schedule: Q04DX003 (oral), vehicle: saline 104 % of control | endpoint: mean survival time, dose: 32.0 mg/kg/injection, schedule: Q01DX001 (oral), vehicle: clinical formulation 106 % of control | endpoint: mean survival time, dose: 32.0 mg/kg/injection, schedule: Q03HX008 (oral), vehicle: clinical formulation 110 % of control | endpoint: mean survival time, dose: 37.5 mg/kg/injection, schedule: Q01DX001 (oral), vehicle: other 110 % of control | endpoint: mean survival time, dose: 37.5 mg/kg/injection, schedule: Q01DX001 (sc), vehicle: saline 101 % of control and 109 % of control | endpoint: mean survival time, dose: 40.0 mg/kg/injection, schedule: Q#A X018 (ip), vehicle: other 105 % of control | endpoint: mean survival time, dose: 50.0 mg/kg/injection, schedule: Q01DX001 (oral), vehicle: water 104 % of control | endpoint: mean survival time, dose: 50.0 mg/kg/injection, schedule: Q01DX009 (ip), vehicle: saline with Tween-80 95 % of control | endpoint: mean survival time, dose: 50.0 mg/kg/injection, schedule: Q01DX009 (oral), vehicle: saline 110 % of control | endpoint: mean survival time, dose: 64.0 mg/kg/injection, schedule: Q04DX003 (ip), vehicle: Klucel (hydroxypropylcellulose) (HPC) 94 % of control and 95 % of control | endpoint: mean survival time, dose: 75.0 mg/kg/injection, schedule: Q01DX001 (oral), vehicle: saline 108 % of control | endpoint: mean survival time, dose: 75.0 mg/kg/injection, schedule: Q01DX001 (sc), vehicle: saline 103 % of control and 105 % of control | endpoint: mean survival time, dose: 75.0 mg/kg/injection, schedule: Q01DX009 (ip), vehicle: saline with Tween-80 98 % of control | endpoint: mean survival time, dose: 75.0 mg/kg/injection, schedule: Q04DX003 (ip), vehicle: clinical formulation 94 % of control | endpoint: mean survival time, dose: 75.0 mg/kg/injection, schedule: Q04DX003 (ip), vehicle: lactic acid 92 % of control | endpoint: mean survival time, dose: 80.0 mg/kg/injection, schedule: Q01DX009 (ip), vehicle: other 104 % of control | endpoint: mean survival time, dose: 80.0 mg/kg/injection, schedule: Q#A X018 (ip), vehicle: other 104 % of control | endpoint: mean survival time, dose: 80.0 mg/kg/injection, schedule: Q#A X018 (oral), vehicle: other 96 % of control | endpoint: mean survival time, dose: 100.0 mg/kg/injection, schedule: Q01DX009 (ip), vehicle: saline with Tween-80 93 % of control | endpoint: mean survival time, dose: 100.0 mg/kg/injection, schedule: Q04DX003 (oral), vehicle: water 110 % of control | endpoint: mean survival time, dose: 128.0 mg/kg/injection, schedule: Q01DX005 (ip), vehicle: saline 100 % of control | endpoint: mean survival time, dose: 128.0 mg/kg/injection, schedule: Q01DX009 (ip), vehicle: water 103 % of control and 108 % of control | endpoint: mean survival time, dose: 128.0 mg/kg/injection, schedule: Q08DX002 (ip), vehicle: clinical formulation 101 % of control | endpoint: mean survival time, dose: 150.0 mg/kg/injection, schedule: Q01DX001 (oral), vehicle: saline with Tween-80 108 % of control | endpoint: mean survival time, dose: 150.0 mg/kg/injection, schedule: Q01DX001 (sc), vehicle: saline 103 % of control and 110 % of control | endpoint: mean survival time, dose: 160.0 mg/kg/injection, schedule: Q01DX015 (oral), vehicle: carboxymethylcellulose (CMC) 104 % of control | endpoint: mean survival time, dose: 170.0 mg/kg/injection, schedule: Q01DX Z (oral), vehicle: saline 105 % of control | endpoint: mean survival time, dose: 200.0 mg/kg/injection, schedule: Q04DX003 (ip), vehicle: water 104 % of control | endpoint: mean survival time, dose: 256.0 mg/kg/injection, schedule: Q01DX005 (ip), vehicle: other 110 % of control | endpoint: mean survival time, dose: 256.0 mg/kg/injection, schedule: Q01DX009 (ip), vehicle: other 104 % of control | endpoint: mean survival time, dose: 300.0 mg/kg/injection, schedule: Q01DX001 (sc), vehicle: saline 110 % of control | endpoint: mean survival time, dose: 300.0 mg/kg/injection, schedule: Q04DX003 (ip), vehicle: saline with Tween-80 103 % of control | endpoint: mean survival time, dose: 300.0 mg/kg/injection, schedule: Q04DX003 (ip), vehicle: saline 100 % of control | endpoint: mean survival time, dose: 400.0 mg/kg/injection, schedule: Q04DX002 (ip), vehicle: Klucel (hydroxypropylcellulose) (HPC) 97 % of control | endpoint: mean survival time, dose: 400.0 mg/kg/injection, schedule: Q04DX003 (oral), vehicle: saline 93 % of control | endpoint: mean survival time, dose: 600.0 mg/kg/injection, schedule: Q01DX001 (ip), vehicle: Klucel (hydroxypropylcellulose) (HPC) 103 % of control | endpoint: mean survival time, dose: 600.0 mg/kg/injection, schedule: Q01DX001 (sc), vehicle: saline 109 % of control and 110 % of control | endpoint: mean survival time, dose: 960.0 mg/kg/injection, schedule: Q01DX001 (ip), vehicle: other 110 % of control | endpoint: median survival time, dose: 2.0 mg/kg/injection, schedule: Q03HX008 (oral), vehicle: other 100 % of control | endpoint: median survival time, dose: 4.0 mg/kg/injection, schedule: Q01DX009 (oral), vehicle: other 111 % of control | endpoint: median survival time, dose: 32.0 mg/kg/injection, schedule: Q01DX009 (oral), vehicle: other 100 % of control | endpoint: median survival time, dose: 32.0 mg/kg/injection, schedule: Q01DX009 (sc), vehicle: water 100 % of control | endpoint: median survival time, dose: 64.0 mg/kg/injection, schedule: Q01DX009 (oral), vehicle: other 94 % of control | endpoint: median survival time, dose: 256.0 mg/kg/injection, schedule: Q01DX001 (sc), vehicle: water 100 % of control | endpoint: median survival time, dose: 400.0 mg/kg/injection, schedule: Q04DX003 (ip), vehicle: saline with Tween-80 111 % of control
